One test has as its target Large T antigen (Simian virus 40, UniProt P03070). Type of test: functional, Betapolyomavirus macacae.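 Also: Confirmatory-stage PubChem screen for compounds that inhibit SV40 T antigen.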
Test [1] deals with T1, Rac GTPase-activating protein 1 (Homo sapiens, UniProt Q9H0H5).
T1 sequence (Q9H0H5 whole entry): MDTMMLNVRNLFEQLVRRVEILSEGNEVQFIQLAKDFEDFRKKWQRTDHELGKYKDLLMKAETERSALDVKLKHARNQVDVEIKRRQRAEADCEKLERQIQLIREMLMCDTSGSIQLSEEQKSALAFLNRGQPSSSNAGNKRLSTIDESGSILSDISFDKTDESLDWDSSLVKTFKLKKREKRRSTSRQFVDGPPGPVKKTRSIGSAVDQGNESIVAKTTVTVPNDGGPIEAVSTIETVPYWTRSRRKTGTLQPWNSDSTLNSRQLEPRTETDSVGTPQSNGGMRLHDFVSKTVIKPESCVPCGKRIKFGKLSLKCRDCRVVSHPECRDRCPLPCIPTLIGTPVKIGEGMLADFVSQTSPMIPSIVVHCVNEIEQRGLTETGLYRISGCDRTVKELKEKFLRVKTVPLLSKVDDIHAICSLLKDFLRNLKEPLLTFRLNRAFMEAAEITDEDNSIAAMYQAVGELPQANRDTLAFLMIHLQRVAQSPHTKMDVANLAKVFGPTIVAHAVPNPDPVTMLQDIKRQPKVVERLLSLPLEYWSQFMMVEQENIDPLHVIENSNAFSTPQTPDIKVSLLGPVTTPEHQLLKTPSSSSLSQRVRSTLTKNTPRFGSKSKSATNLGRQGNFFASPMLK
Briefly: blockers of MgcRacGAP-driven Rac1 GTP hydrolysis – biochemical, ADP Hunter fluorescence, primary and confirmatory, confirmation (AID 624330). In kind it is functional.

Another test concerns H4. Briefly: Luminescence Cell-Based Dose Response HTS to Identify Activators of 5'UTR Stem-Loop Driven Prion Protein mRNA Translation in H4 Neuroglioblastoma Cells. [Related pubchem assays: 1829 (Project Summary), 1814 (Primary HTS)]. In kind it is functional. The following applies: Homo sapiens.
Test [2] can be described thus: Luminescence Cell-Based Dose Response HTS to Identify Activators of Luciferase Translation or Activity in H4 […] Cells. [Related pubchem assays: 1829 (Project Summary), 1814 (Primary HTS)]. In kind it is functional.
The target of test [3] is T2, Corticotropin-releasing factor receptor 2/Corticotropin-releasing factor-binding protein (Homo sapiens, UniProt P24387+Q13324).
T2 sequence (Q13324 whole entry): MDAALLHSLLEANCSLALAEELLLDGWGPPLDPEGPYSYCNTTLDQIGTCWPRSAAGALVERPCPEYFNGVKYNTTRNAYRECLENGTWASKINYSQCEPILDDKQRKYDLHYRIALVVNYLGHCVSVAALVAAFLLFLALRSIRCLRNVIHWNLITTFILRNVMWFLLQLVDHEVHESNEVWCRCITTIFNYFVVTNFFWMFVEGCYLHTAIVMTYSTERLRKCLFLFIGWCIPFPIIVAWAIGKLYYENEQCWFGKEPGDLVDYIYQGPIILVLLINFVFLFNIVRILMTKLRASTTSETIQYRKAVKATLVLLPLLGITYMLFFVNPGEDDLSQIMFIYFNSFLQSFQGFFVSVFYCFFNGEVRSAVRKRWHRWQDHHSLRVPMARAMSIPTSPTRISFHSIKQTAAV
T2 sequence (P24387 whole entry): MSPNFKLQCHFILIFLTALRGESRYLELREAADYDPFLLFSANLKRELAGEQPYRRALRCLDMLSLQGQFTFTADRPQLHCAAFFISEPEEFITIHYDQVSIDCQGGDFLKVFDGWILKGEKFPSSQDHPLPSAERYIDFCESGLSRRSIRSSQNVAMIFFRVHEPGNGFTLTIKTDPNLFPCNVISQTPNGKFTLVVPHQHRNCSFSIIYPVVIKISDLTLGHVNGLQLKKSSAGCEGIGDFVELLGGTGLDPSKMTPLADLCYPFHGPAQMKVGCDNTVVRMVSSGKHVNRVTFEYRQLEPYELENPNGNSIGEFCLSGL
The test is described as follows: activators of CRF receptor 2 with binding protein – uHTS hits, confirmation (AID 602473). Type of test: functional. The following applies: read-out: EC50_Mean.

Test [4] can be described thus: cells. In kind it is functional, cell-based.
The nature of test [5]: cells. In kind it is functional, cell-based. The source holds these as a separate data set.
Another test has as its target Genome polyprotein (dengue virus type 2, UniProt P29990). Briefly: flavivirus cap methylation enzyme inhibition – biochemical, confirmation dose response, primary screen (AID 588689). In kind it is functional.
The next test deals with Paired box protein Pax-8 (Homo sapiens, UniProt Q06710). The test is described as follows: PAX8 transcriptional activity inhibition in RMG-I – RMG-I cells, luciferase, cherry-pick, dose response (AID 687027).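 Also: luciferase reporter driven by Pax8 target thyroperoxidase promoter measured by SteadyGlo luminescence.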 In kind it is functional, cell-based.
Sequence of Paired box protein Pax-8 (Q06710 whole entry): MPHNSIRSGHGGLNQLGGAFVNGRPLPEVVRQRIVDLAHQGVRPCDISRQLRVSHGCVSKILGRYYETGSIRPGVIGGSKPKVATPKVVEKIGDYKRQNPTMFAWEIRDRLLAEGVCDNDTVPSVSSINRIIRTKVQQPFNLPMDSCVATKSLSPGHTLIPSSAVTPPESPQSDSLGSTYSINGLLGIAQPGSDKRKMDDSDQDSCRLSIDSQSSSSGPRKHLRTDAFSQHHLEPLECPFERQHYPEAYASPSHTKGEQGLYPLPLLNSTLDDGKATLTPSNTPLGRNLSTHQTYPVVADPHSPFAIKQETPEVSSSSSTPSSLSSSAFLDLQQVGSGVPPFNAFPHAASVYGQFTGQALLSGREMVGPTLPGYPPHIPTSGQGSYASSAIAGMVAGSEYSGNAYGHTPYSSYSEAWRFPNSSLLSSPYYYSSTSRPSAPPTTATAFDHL
A further test concerns Streptococcus. Briefly: GAS UMAA2166 growth inhibition – luminescence, BacTiterGlo, counter-screen for streptokinase expression inhibitor project, dose response (AID 1915).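 Also: potency for reduction of bacterial viability or growth.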 Type of test: functional, organism-based.
Test [6] can be described thus: viability of PTEN-deleted HCT116 cells – cell-based, HCT116 PTEN knockout, dose response (AID 1047).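 Also: HCT116 colon tumor cells with PTEN knocked out; cells exposed to compound for 60 hours before readout; potency for loss of cell viability measured by luminescence.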 Type of test: functional.
Test [7] has as its system Streptococcus sp. 'group A'. The test is described as follows: Streptococcus pyogenes SK(-)GAS viability under kanamycin – luminescence, BacTiterGlo, confirmation, counter-screen for streptokinase expression inhibitor project, dose response (AID 1900). In kind it is functional, organism-based.
The nature of test [8]: viability of uninfected HEp-2 cells – cell-based, HTS, cytotoxicity control for RSV inhibitor project, dose response (AID 2410). In kind it is functional. The following applies: human respiratory syncytial virus.
The next test has as its target T3, Streptokinase A (Streptococcus pyogenes serotype M1, UniProt P10520).
T3 sequence (P10520 whole entry): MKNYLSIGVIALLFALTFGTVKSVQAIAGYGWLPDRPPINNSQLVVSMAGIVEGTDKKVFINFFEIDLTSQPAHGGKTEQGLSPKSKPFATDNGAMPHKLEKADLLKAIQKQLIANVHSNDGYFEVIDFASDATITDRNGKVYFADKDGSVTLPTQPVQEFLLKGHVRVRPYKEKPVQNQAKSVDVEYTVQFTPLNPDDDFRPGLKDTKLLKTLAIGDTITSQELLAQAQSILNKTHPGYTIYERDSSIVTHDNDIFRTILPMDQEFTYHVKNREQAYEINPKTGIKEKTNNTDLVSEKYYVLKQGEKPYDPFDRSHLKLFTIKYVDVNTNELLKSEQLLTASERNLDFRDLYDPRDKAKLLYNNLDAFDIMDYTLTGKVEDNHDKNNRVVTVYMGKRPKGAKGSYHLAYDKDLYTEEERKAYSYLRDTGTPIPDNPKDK
Briefly: viability-normalized secreted streptokinase activity reduction – plasminogen activation absorbance, OD405, dose response (AID 1914).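 Also: secreted streptokinase activity via plasminogen activation per viability signal from cell pellet.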 In kind it is functional, Streptococcus pyogenes M1 GAS.

Test [9] is described as follows: viability of HCT116 lacking mutant beta-catenin – cell-based, human colon tumor, dose response (AID 1045).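 Also: HCT116 colon tumor cells with beta catenin knocked out; cells exposed to compound for 60 hours.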 Type of test: functional.
The target in a further test is T4, Protein skinhead-1 (Caenorhabditis elegans, UniProt P34707).
T4 sequence (P34707 whole entry): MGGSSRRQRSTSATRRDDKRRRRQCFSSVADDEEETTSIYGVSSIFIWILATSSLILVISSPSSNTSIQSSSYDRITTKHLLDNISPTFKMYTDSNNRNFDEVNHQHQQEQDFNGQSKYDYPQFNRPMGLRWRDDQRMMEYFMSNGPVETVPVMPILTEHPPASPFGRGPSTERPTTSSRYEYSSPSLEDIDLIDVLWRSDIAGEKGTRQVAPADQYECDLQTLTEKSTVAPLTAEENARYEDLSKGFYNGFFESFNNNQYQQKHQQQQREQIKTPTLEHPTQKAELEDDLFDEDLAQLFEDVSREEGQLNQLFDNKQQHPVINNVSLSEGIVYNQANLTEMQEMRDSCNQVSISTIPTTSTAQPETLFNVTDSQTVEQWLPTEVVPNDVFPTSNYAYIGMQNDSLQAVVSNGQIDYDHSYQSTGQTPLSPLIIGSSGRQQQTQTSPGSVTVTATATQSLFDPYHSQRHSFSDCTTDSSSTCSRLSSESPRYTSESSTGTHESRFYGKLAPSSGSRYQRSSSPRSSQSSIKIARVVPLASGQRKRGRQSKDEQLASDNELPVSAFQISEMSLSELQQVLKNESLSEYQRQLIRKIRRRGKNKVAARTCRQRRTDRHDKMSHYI
Type of test: functional.

A short description of test [10]: non-specific 3'UTR reporter inhibition in Clone20-Shn3RL – cell-based, Renilla luciferase, cherry-picked, counter-screen for Shn3 inhibitor project, dose response (AID 624133). Type of test: functional.

The source made the active and inactive calls.

Sequence of Genome polyprotein (P29990 2492-3391 limits assumed): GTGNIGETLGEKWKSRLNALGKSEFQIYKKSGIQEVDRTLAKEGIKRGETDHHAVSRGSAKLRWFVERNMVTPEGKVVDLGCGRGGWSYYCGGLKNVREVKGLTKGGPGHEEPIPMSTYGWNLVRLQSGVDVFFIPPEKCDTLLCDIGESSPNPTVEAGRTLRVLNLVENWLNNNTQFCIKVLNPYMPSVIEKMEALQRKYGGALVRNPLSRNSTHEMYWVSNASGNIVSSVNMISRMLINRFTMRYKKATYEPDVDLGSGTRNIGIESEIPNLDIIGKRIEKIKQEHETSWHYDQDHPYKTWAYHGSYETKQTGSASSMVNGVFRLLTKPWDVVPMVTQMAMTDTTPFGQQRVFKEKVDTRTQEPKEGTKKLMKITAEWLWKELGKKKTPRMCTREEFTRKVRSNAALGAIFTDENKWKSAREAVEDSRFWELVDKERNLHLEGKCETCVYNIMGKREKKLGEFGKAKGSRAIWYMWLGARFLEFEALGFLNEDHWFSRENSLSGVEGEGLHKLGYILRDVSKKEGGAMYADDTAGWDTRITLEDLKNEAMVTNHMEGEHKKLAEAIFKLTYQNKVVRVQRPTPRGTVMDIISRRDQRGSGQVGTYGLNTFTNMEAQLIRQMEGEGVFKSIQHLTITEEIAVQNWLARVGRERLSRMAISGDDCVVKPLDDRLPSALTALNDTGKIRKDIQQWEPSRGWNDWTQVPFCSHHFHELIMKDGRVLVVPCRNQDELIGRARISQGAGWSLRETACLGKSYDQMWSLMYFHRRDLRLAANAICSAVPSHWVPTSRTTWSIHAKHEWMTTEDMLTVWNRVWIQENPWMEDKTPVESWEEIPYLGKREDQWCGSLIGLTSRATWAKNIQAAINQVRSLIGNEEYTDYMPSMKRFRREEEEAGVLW
Sequence of Large T antigen (P03070 whole entry): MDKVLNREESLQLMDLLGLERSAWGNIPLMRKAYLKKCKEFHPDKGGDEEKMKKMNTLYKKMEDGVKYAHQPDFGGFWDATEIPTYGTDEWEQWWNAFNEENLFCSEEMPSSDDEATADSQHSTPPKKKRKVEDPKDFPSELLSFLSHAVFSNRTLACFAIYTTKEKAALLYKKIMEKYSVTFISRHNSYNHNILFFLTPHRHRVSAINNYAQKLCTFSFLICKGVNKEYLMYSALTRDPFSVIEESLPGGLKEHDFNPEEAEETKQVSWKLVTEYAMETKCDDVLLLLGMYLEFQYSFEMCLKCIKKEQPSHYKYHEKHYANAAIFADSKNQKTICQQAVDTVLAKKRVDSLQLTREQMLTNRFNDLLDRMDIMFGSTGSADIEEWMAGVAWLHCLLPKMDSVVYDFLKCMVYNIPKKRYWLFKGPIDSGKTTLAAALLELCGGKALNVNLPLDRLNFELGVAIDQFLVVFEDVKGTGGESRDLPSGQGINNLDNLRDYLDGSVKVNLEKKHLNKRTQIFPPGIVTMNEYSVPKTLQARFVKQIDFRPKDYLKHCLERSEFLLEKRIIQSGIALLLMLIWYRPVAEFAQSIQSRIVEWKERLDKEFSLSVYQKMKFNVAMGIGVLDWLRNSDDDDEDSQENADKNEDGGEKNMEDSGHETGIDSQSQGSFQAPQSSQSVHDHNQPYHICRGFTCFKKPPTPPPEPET

Turning to `CCc1c(C)nc(N)nc1N1N=C1SC(C(C)=O)C(C)=O`, the values for the IC50 (at Large T antigen; in [1]) were 95.9 µM (active) and 12.5 µM (active), respectively.

Turning to `O=C(Nc1ccc(Cl)c(Cl)c1)c1ccc(Cn2cc(Cl)cn2)cc1`, the EC50 with H4 was > 120 µM (not active); in test [2], 38.1 µM (active).

`Cc1cc(C=C(C#N)C#N)ccc1N1CCCC1`: the EC50 in [3] was 6.3 µM (active).

In the case of `COc1ccc2nc(NC3=NCCN3)sc2c1`, the EC50 in the test on H4 is 2.01 µM (active); in [2], 0.778 µM (active).

As to `O=C(NNC(=O)c1ccccc1Br)c1ccc(Cl)cc1`, the EC50 in “cells [4]” and in the test “cells [5]” was > 350 µM (not active) in each case.

On to `CS(=O)(=O)c1ccc2nc(NC(=O)C3CC3)sc2c1`, for which the EC50 in the test “cells [4]” and in “cells [5]” was > 350 µM (not active) in each case.

Regarding `O=C1NC(=O)C(=Cc2ccc(N3CCN(C(=O)c4ccccc4)CC3)c([N+](=O)[O-])c2)C(=O)N1`, the IC50 at Genome polyprotein is 19.8 µM (active).

Take `CCCCCCc1cc2cc(C(=O)NC)c(=N)oc2cc1O`: in test [3], the EC50 was 3.06 µM (active).

For the compound `COc1cc(C2c3cc4c(c(O)c3CC3COC(=O)C32)OCO4)cc(OC)c1OC` (stereo not given), the AC50 at Paired box protein Pax-8 was < 0.26 µM (active).

Regarding `CC(=O)Nc1ccccc1O`, the IC50 at Large T antigen was 6.2 µM (active).

Turning to `O=C1NC(=O)C(=Cc2coc3ccc(O)cc3c2=O)C(=O)N1`, the values for the IC50 (in [1]; at Genome polyprotein) were 150 µM (active) and > 100 µM (active), respectively.

As for `O=C(Oc1ccc(-c2cnc3ccccc3n2)cc1)c1ccc(Cl)c([N+](=O)[O-])c1`, the EC50 in the test with Streptococcus is 114 µM (active); in test [6], 48.9 µM (active); in [7], 11.5 µM (active); on Streptokinase A it was > 150 µM (not active); in test [9], 34.6 µM (active). Besides, the CC50 in test [8] was 25.1 µM (active).

With `CCOc1ccccc1NC(=O)CSc1ncnc2c1oc1ccccc12`, the EC50 in the test “cells [4]” and in the test “cells [5]” was > 350 µM (not active) throughout. Besides, at Protein skinhead-1, the IC50 is > 100 µM (inactive).

Consider `CCC(Oc1ccccc1)C(=O)Nc1ccccc1N1CCCCC1` (stereo not given), for which the EC50 in the test with Streptococcus was 19.9 µM (active); in [7], 10.3 µM (active); on Streptokinase A it was 15.8 µM (active).

Turning to `COc1cc(/C=C2/C(=O)NN(c3ccc(F)cc3)C2=O)cc([N+](=O)[O-])c1O`, the IC50 at Genome polyprotein was > 100 µM (active).

Consider `Cc1ccc(-c2nnn(CC(=O)N(Cc3cccs3)C(C(=O)NC3CCCCC3)c3ccco3)n2)o1` (stereo not given), for which the EC50 in the test “cells [4]” and in the test “cells [5]” was > 350 µM (not active) in each case.

Take `Cc1noc(NS(=O)(=O)c2ccc(NC(=O)c3ccccc3NS(=O)(=O)c3ccc(F)c(F)c3)cc2)c1C`: the IC50 on Genome polyprotein is 33.2 µM (active).

`COc1ccc(S(=O)(=O)NCCC(=O)OCC(=O)NC2CC2)cc1`: the AC50 in test [10] was 33.7 µM (active).

In the case of `C=CCN1C(=O)/C(=C/c2ccc(O)cc2)S/C1=N/c1nccs1`, the EC50 in test [3] is > 53 µM (inactive). Further, the CC50 in test [8] is 22.4 µM (active).

For the compound `O=C(Nc1ccc(F)cc1)N1CCCCN2[C@@H](CO)[C@@H](c3ccc(-c4cccc(F)c4)cc3)[C@@H]2C1`, at Paired box protein Pax-8, the AC50 was 21.3 µM (active).

In the case of `CC1=C(C(=O)O)N2C(=O)C(NC(=O)Cc3ccccc3)C2SC1` (stereo not given), the EC50 was 2.68 µM (active) in the test on Streptococcus, 1.22 µM (active) in test [7] and > 150 µM (not active) at Streptokinase A.

On to `N/C(=N\[N+](=O)[O-])N/N=C/c1ccc(O)cc1`, for which the figures for the IC50 (on Large T antigen; in test [1]) were > 100 µM (active) and 20.4 µM (active), respectively.

For the compound `CC/C(=N\NC(=O)CCC(=O)NCc1ccccc1)c1ccc(O)cc1`, on Large T antigen, the IC50 is 34.6 µM (active).

As to `Cc1ccsc1C(=O)N/N=C/c1ccc([N+](=O)[O-])cc1`, the EC50 is > 350 µM (not active) in the test “cells [4]” and 5.99 µM (active) in “cells [5]”.

The record behind these values is ChEMBL document CHEMBL1201862, “PubChem BioAssay data set” (2004).
